Test results: the supplement of paper PMC13380429

Assays:
Details in all cases: 72 h
[1] = system: U2OS; test: relative viability EC50 (midpoint between 100% and the lowest measured viability); higher = less toxic
[2] = system: Calu-3; test: as above
[3] = system: Caco-2; test: as above
[4] = system: HepG2; test: as above
[5] = system: Vero E6; test: as above
[6] = system: U2OS; test: cell viability relative to DMSO; higher = less toxic
[7] = system: Calu-3; test: as above
[8] = system: Caco-2; test: as above
[9] = system: HepG2; test: as above
[10] = system: Vero E6; test: as above
[11] = system: U2OS; test: drug sensitivity score (DSS) for viability; higher = more toxic; extreme values may be limits of the assay
[12] = system: Calu-3; test: as above
[13] = system: Caco-2; test: as above
[14] = system: HepG2; test: as above
[15] = system: Vero E6; test: as above

Compound	relative viability EC50 [1]	relative viability EC50 [2]	relative viability EC50 [3]	relative viability EC50 [4]	relative viability EC50 [5]	cell viability ([6]; 1 nM)	cell viability ([6]; 10 nM)	cell viability ([6]; 100 nM)	cell viability ([6]; 1000 nM)	cell viability ([6]; 10000 nM)	cell viability ([7]; 1 nM)	cell viability ([7]; 10 nM)	cell viability ([7]; 100 nM)	cell viability ([7]; 1000 nM)	cell viability ([7]; 10000 nM)	cell viability ([8]; 1 nM)	cell viability ([8]; 10 nM)	cell viability ([8]; 100 nM)	cell viability ([8]; 1000 nM)	cell viability ([8]; 10000 nM)	cell viability ([9]; 1 nM)	cell viability ([9]; 10 nM)	cell viability ([9]; 100 nM)	cell viability ([9]; 1000 nM)	cell viability ([9]; 10000 nM)	cell viability ([10]; 1 nM)	cell viability ([10]; 10 nM)	cell viability ([10]; 100 nM)	cell viability ([10]; 1000 nM)	cell viability ([10]; 10000 nM)	drug sensitivity score [11]	drug sensitivity score [12]	drug sensitivity score [13]	drug sensitivity score [14]	drug sensitivity score [15]
C[C@@H](NCc1cc(Br)cc2nc(O)c(O)nc12)P(=O)(O)O	> 10 µM	> 10 µM	> 10 µM	> 10 µM	> 10 µM	107%	97.2%	96.6%	92.5%	98.4%	103%	86%	81%	110%	102%	97%	100%	109%	94.4%	97.5%	94.2%	94%	99.4%	93.3%	89.2%	105%	105%	103%	98.8%	96.1%	0	0	0	0	0
Cc1cc(C(C#N)c2ccc(Cl)cc2)c(Cl)cc1NC(=O)c1cc(I)cc(I)c1O (stereo not given) [closantel]	> 10 µM	> 10 µM	> 10 µM	> 10 µM	> 10 µM	93.3%	96.7%	97.4%	98.8%	104%	90.9%	95.5%	92.3%	92.4%	95.3%	97.4%	99.6%	99.8%	97.5%	100%	95%	95.5%	102%	86.4%	107%	101%	98.2%	96.2%	93.7%	101%	0	0	0	0	0
O=C(C[S+]([O-])C(c1ccccc1)c1ccccc1)NO (stereo not given) [adrafinil]	> 10 µM	> 10 µM	> 10 µM	> 10 µM	> 10 µM	97.9%	102%	97.9%	107%	99.8%	103%	110%	98.4%	107%	108%	93.8%	91.1%	91.6%	103%	101%	97.6%	88.7%	97.2%	96.1%	102%	93.5%	85.5%	93.8%	93%	107%	0	0	0	0	0
CC(C)(N)C(=O)N[C@H](COCc1ccccc1)C(=O)N1CCC2(CC1)CN(S(C)(=O)=O)c1ccccc12 [ibutamoren]	> 10 µM	> 10 µM	> 10 µM	> 10 µM	> 10 µM	100%	100%	96.9%	102%	100%	111%	108%	98%	105%	91%	93.6%	98.4%	99%	100%	95.8%	102%	89.5%	95.6%	98%	95.6%	104%	103%	98.1%	95.6%	108%	0	0	0	0	0
CCCCCCCCCCCCCCCCOP(=O)([O-])OCC[N+](C)(C)C [miltefosine]	> 10 µM	> 10 µM	> 10 µM	> 10 µM	> 10 µM	96.8%	103%	97.2%	99.9%	95.5%	98.3%	91.5%	90.3%	108%	86.5%	113%	104%	106%	114%	99.8%	107%	98.5%	112%	96.4%	109%	96.1%	101%	110%	105%	77.3%	0	0	0	0	0.6
COc1ccccc1N1CCN(CCCCNC(=O)c2ccc(-c3ccc(C(C)=O)cc3)cc2)CC1	> 10 µM	> 10 µM	> 10 µM	> 10 µM	> 10 µM	101%	95.8%	102%	98.4%	101%	101%	92.6%	110%	102%	96.5%	93.7%	94.5%	119%	106%	110%	104%	104%	96.4%	94.6%	83.8%	104%	99.5%	101%	102%	95.5%	0	0	0	0.5	0
Cc1cc(NC(=O)NCCN2CCC(O)(Cc3ccccc3)CC2)c2ccccc2n1 [palosuran]	> 10 µM	> 10 µM	> 10 µM	> 10 µM	> 10 µM	99.3%	94.9%	98%	96.5%	103%	95.3%	91.9%	103%	100%	89.4%	99.5%	93.1%	88.3%	99.4%	104%	102%	110%	96.3%	99.7%	92.5%	104%	106%	99.4%	104%	102%	0	0	0	0	0
Cc1cc2c(s1)Nc1ccccc1N=C2N1CCN(C)CC1 [olanzapine]	> 10 µM	> 10 µM	> 10 µM	> 10 µM	> 10 µM	93.1%	99%	95.2%	99.6%	102%	99%	102%	104%	104%	108%	97.8%	91.5%	98.1%	99.1%	103%	118%	110%	121%	98.5%	106%	96.4%	96.8%	96%	92.7%	104%	0	0	0	0	0
CCC(CO)(C(=O)OC1CC2CCC(C1)[N+]2(C)C)c1ccccc1 (stereo not given) [troventol]	> 10 µM	> 10 µM	> 10 µM	> 10 µM	> 10 µM	97.3%	94.3%	99.4%	97.8%	105%	99.8%	94.6%	91.8%	102%	93.9%	92.5%	92.6%	98.5%	94.2%	94.2%	93.6%	103%	93.1%	107%	113%	93.7%	96%	86.6%	97.8%	110%	0	0	0	0	0
Cc1onc(-c2c(Cl)cccc2Cl)c1C(=O)N[C@@H]1C(=O)N2[C@@H]1SC(C)(C)[C@@H]2C(=O)O [dicloxacillin]	> 10 µM	> 10 µM	> 10 µM	> 10 µM	> 10 µM	95.6%	99.9%	93.7%	97.9%	94.9%	98.2%	84.7%	96%	97.6%	98.9%	100%	99.6%	93.3%	98.2%	101%	97.5%	98.1%	106%	100%	110%	99.4%	97.7%	102%	94.1%	96.3%	0	0	0	0	0
CCCC(=O)Nc1cccc(NC(=O)c2ccccc2Br)c1 [ML161]	> 10 µM	> 10 µM	> 10 µM	> 10 µM	> 10 µM	95.3%	97.7%	95.8%	98.8%	94.2%	95.4%	101%	89.2%	101%	105%	93.6%	95.5%	89.6%	96.6%	94%	91.6%	98%	94.9%	94.2%	103%	100%	96.1%	103%	98.9%	97.7%	0	0	0	0	0
